From ChEMBL document CHEMBL4011594, “Discovery and optimization of 2-pyridinone aminal integrase strand transfer inhibitors for the treatment of HIV” (Bioorg Med Chem Lett, 2017)
Converted amounts (≈) assume the structure as drawn.

Key:
[1] = system: Human immunodeficiency virus 1; assay: Inhibition of wild-type HIV-1 integrase strand transfer activity assessed as reduction in viral replication in presence of 10% normal human serum
[2] = system: Human immunodeficiency virus 1; assay: Inhibition of HIV-1 integrase strand transfer activity assessed as reduction in viral replication in presence of 50% normal human serum
[3] = Aqueous solubility of the compound at pH 2; type: physicochemical
[4] = Aqueous solubility of the compound at pH 7; type: physicochemical
[5] = Clearance in Beagle dog at 0.5 mg/kg, iv or 1 mg/kg, po; type: ADME, organism-based, Canis lupus familiaris; settings: in vivo
[6] = Volume of distribution in Beagle dog at 0.5 mg/kg, iv or 1 mg/kg, po; type: ADME, organism-based, Canis lupus familiaris; settings: in vivo
[7] = Half life in Beagle dog at 0.5 mg/kg, iv or 1 mg/kg, po; type: ADME, organism-based, Canis lupus familiaris; settings: in vivo
[8] = Oral bioavailability in Beagle dog at 1 mg/kg; type: ADME, organism-based, Canis lupus familiaris; settings: in vivo
[9] = system: Human immunodeficiency virus type 1 integrase (Human immunodeficiency virus 1), Q7ZJM1 [E92Q]; assay: Inhibition of HIV-1 integrase E92Q mutant strand transfer activity assessed as reduction in viral replication
[10] = system: Human immunodeficiency virus type 1 integrase (Human immunodeficiency virus 1), Q7ZJM1 [Y143R]; assay: Inhibition of HIV-1 integrase Y143R mutant strand transfer activity assessed as reduction in viral replication
[11] = system: Human immunodeficiency virus type 1 integrase (Human immunodeficiency virus 1), Q7ZJM1 [Q148R]; assay: Inhibition of HIV-1 integrase Q148R mutant strand transfer activity assessed as reduction in viral replication
[12] = system: Human immunodeficiency virus type 1 integrase (Human immunodeficiency virus 1), Q7ZJM1 [Q148K]; assay: Inhibition of HIV-1 integrase Q148K mutant strand transfer activity assessed as reduction in viral replication
[13] = system: Human immunodeficiency virus type 1 integrase (Human immunodeficiency virus 1), Q7ZJM1 [N155H]; assay: Inhibition of HIV-1 integrase N155H mutant strand transfer activity assessed as reduction viral replication
[14] = system: Human immunodeficiency virus type 1 integrase (Human immunodeficiency virus 1), Q7ZJM1 [G140S,Q148H]; assay: Inhibition of HIV-1 integrase G140S/Q148H double mutant strand transfer activity assessed as reduction in viral replication
[15] = Plasma protein binding in Beagle dog; type: ADME, cell-free, Canis lupus familiaris; settings: read-out: PPB (converted)

| SMILES | IP [1] [nM] | IP [2] [nM] | solubility [3] [µM] | solubility [4] [µM] | other results |
| --- | --- | --- | --- | --- | --- |
| COc1nccc2c1C1(CC2)NC(=O)c2c3c(c(O)c(=O)n21)C(=O)N(Cc1ccc(F)c(Cl)c1)CC3 (racemic) | 493 | 1940 |  |  |  |
| CN1C(=O)c2c3c(c(O)c(=O)n2C12CCC2)C(=O)N(Cc1ccc(F)c(Cl)c1)CC3 | 210 | 900 | < 5 | < 5 |  |
| O=C1N[C@]2(CC[C@H]3C[C@H]32)n2c1c1c(c(O)c2=O)C(=O)N(Cc2ccc(F)c(Cl)c2)CC1 | 30 | 206 | 30 to 50 (≈ 13.3 to 22.2 µg/mL) | 31 (≈ 13.8 µg/mL) | clearance [5]: 0.12 mL/min/kg; Vd [6]: 0.1 L/kg; half-life [7]: 780 min; bioavailability [8]: 15%; IP [9]: 210 nM; IP [10]: 28 nM; IP [11]: 107 nM; IP [12]: 450 nM; IP [13]: 84 nM; IP [14]: 491 nM |
| CC1CCC2(C1)NC(=O)c1c3c(c(O)c(=O)n12)C(=O)N(Cc1ccc(F)c(Cl)c1)CC3 (racemic) | 110 | 700 | < 5 | < 5 |  |
| C[C@@H](O)CN1C(=O)c2c3c(c(O)c(=O)n2[C@@]12CC[C@H]1C[C@H]12)C(=O)N(Cc1ccc(F)c(Cl)c1)CC3 | 7 | 33 | 190 (≈ 95.4 µg/mL) | 63 (≈ 31.6 µg/mL) |  |
| CN1C(=O)c2c3c(c(O)c(=O)n2C12CCCCCC2)C(=O)N(Cc1ccc(F)c(Cl)c1)CC3 | 1100 | 4800 | < 5 | < 5 |  |
| O=C1CC[C@@H](CN2C(=O)c3c4c(c(O)c(=O)n3C23CCC2CC23)C(=O)N(Cc2ccc(F)c(Cl)c2)CC4)N1 (some centres not stated) | 40 | 130 |  |  |  |
| C[C@H](O)CN1C(=O)c2c3c(c(O)c(=O)n2[C@@]12CC[C@H]1C[C@H]12)C(=O)N(Cc1ccc(F)c(Cl)c1)CC3 | 8 | 44 | 125 (≈ 62.7 µg/mL) | 98 (≈ 49.2 µg/mL) | fraction unbound [15]: 0.025; clearance [5]: 2.9 mL/min/kg; Vd [6]: 0.5 L/kg; half-life [7]: 360 min; bioavailability [8]: 42%; IP [9]: 10 nM; IP [10]: 11 nM; IP [11]: 10 nM; IP [12]: 10 nM; IP [13]: 11 nM; IP [14]: 27 nM |
| Cc1ccc2c(c1)C1(CC2)NC(=O)c2c3c(c(O)c(=O)n21)C(=O)N(Cc1ccc(F)c(Cl)c1)CC3 (racemic) | 45 | 230 | < 2 | < 2 |  |
| O=C1NC(C2CCC2)n2c1c1c(c(O)c2=O)C(=O)N(Cc2ccc(F)c(Cl)c2)CC1 (racemic) | 8340 | > 10000 | 40 (≈ 17.3 µg/mL) | 31 (≈ 13.4 µg/mL) |  |
| CN1CCN(CCN2C(=O)c3c4c(c(O)c(=O)n3C23CCC2CC23)C(=O)N(Cc2ccc(F)c(Cl)c2)CC4)S1(=O)=O (configuration not stated) | 13 | 65 | 18 (≈ 10.9 µg/mL) | 12 (≈ 7.27 µg/mL) |  |
| O=C1NC2(Cc3ccccc3C2)n2c1c1c(c(O)c2=O)C(=O)N(Cc2ccc(F)c(Cl)c2)CC1 | 620 | 1800 | < 3 | < 3 |  |
| CO[C@H](C)CN1C(=O)c2c3c(c(O)c(=O)n2C12CCC1CC12)C(=O)N(Cc1ccc(F)c(Cl)c1)CC3 (some centres not stated) | 25 | 180 | 46 (≈ 23.7 µg/mL) | 26 (≈ 13.4 µg/mL) |  |
| O=C1NC2(CCCC2)n2c1c1c(c(O)c2=O)C(=O)N(Cc2ccc(F)c(Cl)c2)CC1 | 100 | 1600 | < 5 | 10 (≈ 4.32 µg/mL) |  |
| CO[C@@H](C)CN1C(=O)c2c3c(c(O)c(=O)n2C12CCC1CC12)C(=O)N(Cc1ccc(F)c(Cl)c1)CC3 (some centres not stated) | 28 | 210 | 12 (≈ 6.19 µg/mL) | 23 (≈ 11.9 µg/mL) |  |
| CN(CCN1C(=O)c2c3c(c(O)c(=O)n2C12CCC1CC12)C(=O)N(Cc1ccc(F)c(Cl)c1)CC3)S(C)(=O)=O (configuration not stated) | 19 | 150 | 33 (≈ 19.1 µg/mL) | 17 (≈ 9.84 µg/mL) |  |
| Cc1cccc2c1CCC21NC(=O)c2c3c(c(O)c(=O)n21)C(=O)N(Cc1ccc(F)c(Cl)c1)CC3 (racemic) | 140 | 540 | < 2 | < 2 |  |
| O=C1NC2(CCc3ccccc32)n2c1c1c(c(O)c2=O)C(=O)N(Cc2ccc(F)c(Cl)c2)CC1 (racemic) | 27 | 190 | < 2 | < 2 |  |
| Cc1ccc2c(c1)CCC21NC(=O)c2c3c(c(O)c(=O)n21)C(=O)N(Cc1ccc(F)c(Cl)c1)CC3 (racemic) | 59 | 240 | < 3 | < 3 |  |

| SMILES | IP [1] [nM] | IP [2] [nM] | solubility [3] [µM] | solubility [4] [µM] | other results |
| --- | --- | --- | --- | --- | --- |
| COCCN1C(=O)c2c3c(c(O)c(=O)n2C12CCC1CC12)C(=O)N(Cc1ccc(F)c(Cl)c1)CC3 (configuration not stated) | 33 | 197 | 54 (≈ 27.1 µg/mL) | 59 (≈ 29.6 µg/mL) |  |
| O=C1c2c(c3n(c(=O)c2O)C2(CCC4CC42)N(CC2CCOCC2)C3=O)CCN1Cc1ccc(F)c(Cl)c1 (racemic) | 31 | 240 | 44 (≈ 23.8 µg/mL) | 14 (≈ 7.59 µg/mL) |  |
| O=C1c2c(c3n(c(=O)c2O)C2(CCC4CC42)N(CCO)C3=O)CCN1Cc1ccc(F)c(Cl)c1 (configuration not stated) | 48 | 274 | 138 (≈ 67.3 µg/mL) | 107 (≈ 52.2 µg/mL) |  |
| COc1ccnc2c1C1(CC2)NC(=O)c2c3c(c(O)c(=O)n21)C(=O)N(Cc1ccc(F)c(Cl)c1)CC3 (racemic) | 13 | 74 | 190 (≈ 97.1 µg/mL) | 63 (≈ 32.2 µg/mL) |  |
| O=C1c2c(c3n(c(=O)c2O)C2(CCC4CC42)N(CCN2C(=O)CCC2=O)C3=O)CCN1Cc1ccc(F)c(Cl)c1 (configuration not stated) | 7 | 46 | 89 (≈ 50.6 µg/mL) | 48 (≈ 27.3 µg/mL) | fraction unbound [15]: 0.058; clearance [5]: 7.3 mL/min/kg; Vd [6]: 2.1 L/kg; half-life [7]: 396 min; bioavailability [8]: 4.5 to 5%; IP [9]: 7 nM; IP [10]: 11 nM; IP [11]: 7 nM; IP [12]: 7 nM; IP [13]: 8 nM; IP [14]: 23 nM |
| COc1cccc2c1[C@]1(CC2)NC(=O)c2c3c(c(O)c(=O)n21)C(=O)N(Cc1ccc(F)c(Cl)c1)CC3 | 4 | 22 | < 2 | 5 (≈ 2.55 µg/mL) |  |
| COCC(O)CN1C(=O)c2c3c(c(O)c(=O)n2C12CCC1CC12)C(=O)N(Cc1ccc(F)c(Cl)c1)CC3 (configuration not stated) | 16 | 130 | 157 (≈ 83.5 µg/mL) | 123 (≈ 65.4 µg/mL) |  |
| CN1CC(=O)N(CCN2C(=O)c3c4c(c(O)c(=O)n3C23CCC2CC23)C(=O)N(Cc2ccc(F)c(Cl)c2)CC4)C1=O (configuration not stated) | 8 | 42 | 136 (≈ 79.4 µg/mL) | 56 (≈ 32.7 µg/mL) |  |
| Cc1cccc2c1C1(CC2)NC(=O)c2c3c(c(O)c(=O)n21)C(=O)N(Cc1ccc(F)c(Cl)c1)CC3 (racemic) | 37 | 140 | < 2 | < 2 |  |
| CCC(O)CN1C(=O)c2c3c(c(O)c(=O)n2C12CCC1CC12)C(=O)N(Cc1ccc(F)c(Cl)c1)CC3 (configuration not stated) | 15 | 120 | 69 (≈ 35.6 µg/mL) | 54 (≈ 27.9 µg/mL) |  |
| O=C1N[C@@]2(CC[C@@H]3C[C@@H]32)n2c1c1c(c(O)c2=O)C(=O)N(Cc2ccc(F)c(Cl)c2)CC1 | 16 | 88 | 49 (≈ 21.7 µg/mL) | 32 (≈ 14.2 µg/mL) |  |
| N#Cc1cccc2c1[C@@]1(CC2)NC(=O)c2c3c(c(O)c(=O)n21)C(=O)N(Cc1ccc(F)c(Cl)c1)CC3 | 1300 | 4110 | 10 (≈ 5.05 µg/mL) | 17 (≈ 8.58 µg/mL) |  |
| O=C(CN1C(=O)c2c3c(c(O)c(=O)n2C12CCC1CC12)C(=O)N(Cc1ccc(F)c(Cl)c1)CC3)N1CCOCC1 (configuration not stated) | 18 | 120 | 151 (≈ 86.2 µg/mL) | 67 (≈ 38.3 µg/mL) |  |
| COC(C)(C)CCN1C(=O)c2c3c(c(O)c(=O)n2C12CCC1CC12)C(=O)N(Cc1ccc(F)c(Cl)c1)CC3 (configuration not stated) | 45 | 410 | < 6 | < 6 |  |
| O=C1NC(C2CCCC2)n2c1c1c(c(O)c2=O)C(=O)N(Cc2ccc(F)c(Cl)c2)CC1 (racemic) | > 10000 | > 1000 | 116 (≈ 51.7 µg/mL) | < 5 |  |
| O=C1c2c(c3n(c(=O)c2O)C2(CCC4CC42)N(CCN2CCCS2(=O)=O)C3=O)CCN1Cc1ccc(F)c(Cl)c1 (configuration not stated) | 17 | 170 | 11 (≈ 6.5 µg/mL) | < 4 |  |
| O=C1c2c(c3n(c(=O)c2O)C2(CCC4CC42)N(CCN2C(=O)c4ccccc4C2=O)C3=O)CCN1Cc1ccc(F)c(Cl)c1 (configuration not stated) | 80 | 890 | < 2 | < 2 |  |
| O=C1c2c(c3n(c(=O)c2O)[C@@H](C2CC2)N(C2CC2)C3=O)CCN1Cc1ccc(F)c(Cl)c1 | 95 | 1730 | 40 (≈ 18.3 µg/mL) | 34 (≈ 15.6 µg/mL) | fraction unbound [15]: 0.024; clearance [5]: 1.4 mL/min/kg; Vd [6]: 0.7 L/kg; half-life [7]: 450 min; bioavailability [8]: 44%; IP [9]: 123 nM; IP [10]: 142 nM; IP [11]: 1010 nM; IP [12]: 820 nM; IP [13]: 271 nM; IP [14]: 1540 nM |
